This is an account of results in publication PMC6413231, “o-Vanillin Derived Schiff Bases and Their Organotin(IV) Compounds: Synthesis, Structural Characterisation, In-Silico Studies and Cytotoxicity” (International Journal of Molecular Sciences, 2019).

Test [1] deals with MCF-10A (normal breast) cell line. Briefly: MTT growth inhibition assay, MCF10A. To be noted: MCF10A normal breast cells, 72 h, ± standard error, read-out: Growth Inhibition Concentration, GI50. Format: cell-based. As to the method: (§1) The Schiff bases and their organotin(IV) compounds were screened for in vitro cytotoxicity against a panel of 12 cancer cell lines: EJ-28 (muscle invasive bladder), RT-112 (minimum-invasive bladder), HT29 (colon), U87 and SJ-G2 (glioblastoma), MCF-7 (breast), A2780 (ovarian), H460 (lung), A431 (skin), DU145 (prostate), BE2-C (neuroblastoma), MIA (pancreatic) and one normal breast cell line (MCF-10A) using the MTT metabolic assay (Figure 6). After 72 h of incubation, a dose-dependent […] effect towards the cancer cell lines was measured at very low micromolar (µM) concentrations of the compounds. The growth inhibition concentration of the Schiff bases and their organotin(IV) compounds required to inhibit 50% cell proliferation relative to the cells that were treated with DMSO (control) are given in Table 2. The stability of these compounds was assessed in DMSO as well as in a mixture of DMSO-H2O. The absorbance obtained from UV-vis spectroscopy analysis was monitored for 72 h, and an unchanged pattern in the spectra was indicative that the compounds were stable in both the solvent systems tested.
(§2) For HT29 (colon), U87 and SJ-G2 (glioblastoma), MCF-7 (breast), A2780 (ovarian), H460 (lung), A431 (skin), Du145 (prostate), BE2-C (neuroblastoma), MIA (pancreas) cell lines and one normal breast cell line, MCF-10A (normal breast), the MTT assays were performed using the following method:
(§3) Stock solutions were prepared as follows and stored at −20 °C: Trial compounds were stored as 10 mM solutions in DMSO. All cell lines were cultured in a humidified atmosphere 5% CO2 at 37 °C. The cancer cell lines were maintained in Dulbecco’s modified Eagle’s medium (DMEM) (Trace Biosciences) supplemented with 10% foetal bovine serum, 10 mM sodium bicarbonate, penicillin (100 IU/mL), streptomycin (100 μg/mL) and glutamine (4 mM). The normal cell line, MCF-10A was cultured in DMEM:F12 (1:1) cell culture media, 5% heat inactivated horse serum, supplemented with penicillin (50 IU/mL), streptomycin (50 μg/mL), 20mM Hepes, L-glutamine (2 mM), epidermal growth factor (20 ng/mL), hydrocortisone (500 ng/mL), cholera toxin (100 ng/mL) and insulin (10 μg/mL).
(§4) Cells in logarithmic growth were transferred to 96-well plates. Cytotoxicity was determined by plating cells in duplicate in 100 μL medium at a density of 2500–4000 cells/well. On day 0 (24 h after plating), when the cells were in logarithmic growth, 100 μL medium, with or without the test agent, was added to each well. After 72 h drug exposure, growth inhibitory effects were evaluated using the MTT (3-[4,5-dimethylthiazol-2-yl]-2,5-diphenyltetrazolium bromide) assay and absorbance read at 540 nm. Percentage growth inhibition was determined at a fixed drug concentration of 25 μM. A value of 100% was indicative of complete cell growth inhibition. Those analogues showing appreciable percentage growth inhibition underwent further dose-response analysis allowing for the calculation of a GI50 value. This value is the drug concentration at which cell growth is 50% inhibited based on the difference between the optical density values on day 0 and those at the end of drug exposure.
On the technique in general: Formazan colour is commonly taken as a measure of viable cells.

Test [2] deals with MIA (pancreatic) cancer cells. Briefly: MTT growth inhibition assay, MIA. To be noted: 72 h, ± standard error, read-out: Growth Inhibition Concentration, GI50. In kind it is cell-based. As to the method:
as §1, §2, §3, §4

Test [3] relates to MCF-7 (breast) cancer cells. Briefly: MTT growth inhibition assay, MCF-7. Format: cell-based. The note with it: MCF-7 cells, 72 h, ± standard error, read-out: Growth Inhibition Concentration, GI50. As to the method:
as §1, §2, §3, §4

For test [4], the system named is U87 (glioblastoma) cancer cells. Briefly: MTT growth inhibition assay, U87. In kind it is cell-based. The note with it: 72 h, ± standard error, read-out: Growth Inhibition Concentration, GI50. As to the method: as §1, §2, §3, §4
A further test has as its system H460 (lung) cancer cells. Briefly: MTT growth inhibition assay, H460. Format: cell-based. The note with it: 72 h, ± standard error, read-out: Growth Inhibition Concentration, GI50. The protocol: as §1, §2, §3, §4
The test system of test [5] is SJ-G2 (glioblastoma) cancer cells. Briefly: MTT growth inhibition assay, SJ-G2. Format: cell-based. The note with it: for GI50: MTT, 72 h, ± standard error, read-out: Growth Inhibition Concentration, GI50. The protocol: as §1, §2, §3, §4
Another test relates to calf thymus DNA (CT-DNA). Briefly: CT-DNA binding by UV-vis absorption titration. To be noted: for Bathochromism Shift (nm) / Hypochromism, (%): CT-DNA, UV-vis absorption titration; for Gibbs Free Energy: interaction with CT-DNA. As to the method: Both theoretical and experimental DNA binding of the synthesised organotin(IV) compounds with DNA were investigated. The interaction of organotin(IV) compounds with CT-DNA was elucidated via UV-visible absorption spectroscopy. […] The absorption spectra of diphenyltin(IV) compounds at a constant concentration (50 μM) in the absence and the presence of different concentrations of CT-DNA are shown in Figure 8. Upon increasing concentrations of CT-DNA, hypochromism and bathochromism occurred at around 350–377 nm indicating strong π–π stacking interactions between the aromatic chromophore of the organotin(IV) compounds and the nitrogeneous pair of the DNA strand [11, 70]. The same hypochromism and bathochromism shifts were also observed in other transitions. In order to compare the binding strength of the organotin(IV) compounds to CT-DNA, the intrinsic binding constants (Kb) were quantitatively determined and are presented in Table 3.
DNA binding experiments were carried out at 25°C. DNA concentration per nucleotide was determined using the molar absorption coefficient (6600 M^−1 cm^−1) at 260 nm. […] Absorption titration experiments were performed maintaining the concentration of the organotin(IV) compounds solutions at 50 µM and gradually increasing the concentration of CT-DNA. The organotin(IV) compounds were dissolved in DMSO and diluted with Tris-HCI buffer at room temperature (25 °C). The solutions were scanned over 230–600 nm. Absorbance values were recorded 10 min after the addition of DNA solution. The binding constant, Kb was determined using the equation: [DNA]/(εa−εf)=[DNA]/(εb−εf)+1/Kb(εb−εf) where [DNA] is the concentration of DNA in base pairs, εa corresponds to the apparent molar extinction coefficient Aabs/[M], εf corresponds to the extinction coefficient for the free organotin [M] and εb corresponds to the extinction coefficient for the fully bound organotin compound.

Turning to “Diphenyltin(IV) [Ph2Sn(S2MoVa), Diphenyltin(IV) [S-2-Methybenzyl-β-N-(2-hydroxy-3-methoxybenzylmethylene) dithiocarbazate]]”, the GI50 in test [1] amounted to 1200 ± 300 nM; in test [2], 340 ± 20 nM; in test [3], 1400 ± 120 nM; in test [4], 4400 ± 1700 nM; in the test on H460 (lung) cancer cells, 2800 nM; in test [5], 840 ± 90 nM. The “greater activity than respective Schiff base” value in test [5] (GI50 comparison) is 3 fold. Also, in the test with calf thymus DNA (CT-DNA), the “Bathochromism Shift (nm)” value was 6 nm. For the same substance, the “Hypochromism, (%)” value in the test on calf thymus DNA (CT-DNA) stood at 41.06%. In addition, in the test with calf thymus DNA (CT-DNA), the “Gibbs Free Energy” value is -7.91 kcal/mol.
Turning to “Diphenyltin(IV) [Ph2Sn(S4MoVa), Diphenyltin(IV) [S-4-Methybenzyl-β-N-(2-hydroxy-3-methoxybenzylmethylene) dithiocarbazate]]”, the GI50 in test [1] amounted to 1100 ± 370 nM; in test [2] it was 390 ± 30 nM; in test [3], 820 ± 140 nM; in test [4], 1300 ± 400 nM; in the test with H460 (lung) cancer cells, 1900 ± 230 nM; in test [5], 1000 ± 160 nM. Further, the “Bathochromism Shift (nm)” value in the test on calf thymus DNA (CT-DNA) is reported as 4 nm. The “Hypochromism, (%)” value in the test on calf thymus DNA (CT-DNA) is reported as 28.25%. For the same substance, the “Gibbs Free Energy” value in the test with calf thymus DNA (CT-DNA) is -7.41 kcal/mol.
